In ChEMBL document CHEMBL1201862, “PubChem BioAssay data set” (2004):
Activity calls are given as the source filed them.

How the values were obtained:
[1] = cytotoxicity toward NIH3T3 fibroblasts, dose response, counter-screen, cell-based, ATP luminescence, mouse fibroblasts (AID 2010); type: functional;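 further: cells exposed to compound for about 90 hours before reading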
[2] = inhibitors of intracellular T. cruzi replication, confirmation, NIH3T3 host cells, beta-gal luminescence (AID 2044); type: functional, cell-based;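 further: intracellular parasites grown in NIH/3T3 mouse fibroblasts as host cells; luminescent beta-galactosidase reporter signal from transgenic T. cruzi replicating inside host cells; inhibitors lower the luminescence signal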
[3] = Luminescence Cell-Based Dose Response HTS to Identify Activators of Luciferase Translation or Activity in H4 […] Cells. [Related pubchem assays: 1829 (Project Summary), 1814 (Primary HTS)]; type: functional
H4 = test: Luminescence Cell-Based Dose Response HTS to Identify Activators of 5'UTR Stem-Loop Driven Prion Protein mRNA Translation in H4 Neuroglioblastoma Cells. [Related pubchem assays: 1829 (Project Summary), 1814 (Primary HTS)]; type: functional; conditions: Homo sapiens
Cytochrome P450 2C19 = Cytochrome P450 2C19 (Homo sapiens, UniProt P33261); test: Cytochrome panel assay with activity outcomes. Panel member name: p450-cyp2c19 Compounds with AC50 equal or less than 10 uM are considered active; type: functional
Sequence of Cytochrome P450 2C19 (P33261 whole entry): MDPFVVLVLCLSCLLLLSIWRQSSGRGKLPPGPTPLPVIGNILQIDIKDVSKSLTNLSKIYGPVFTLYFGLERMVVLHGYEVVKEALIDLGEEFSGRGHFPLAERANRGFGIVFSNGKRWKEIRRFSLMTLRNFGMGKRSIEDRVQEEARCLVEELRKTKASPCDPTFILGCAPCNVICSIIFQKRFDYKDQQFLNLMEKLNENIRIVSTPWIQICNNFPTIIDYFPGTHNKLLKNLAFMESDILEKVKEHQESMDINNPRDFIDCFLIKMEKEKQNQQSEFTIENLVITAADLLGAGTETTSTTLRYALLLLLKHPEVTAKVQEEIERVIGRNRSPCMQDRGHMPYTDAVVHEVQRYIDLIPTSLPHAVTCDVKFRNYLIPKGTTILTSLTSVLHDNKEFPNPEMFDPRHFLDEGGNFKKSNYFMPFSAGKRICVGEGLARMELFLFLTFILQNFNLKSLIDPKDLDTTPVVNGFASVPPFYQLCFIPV

| SMILES | EC50 [1] | EC50 [2] | further results |
| --- | --- | --- | --- |
| Cc1c(NC(=O)c2ccc(-c3ccc([N+](=O)[O-])cc3Cl)o2)c(=O)n(-c2ccccc2)n1C | > 60 µM (inconclusive) | 0.839 µM (active) | – |
| CCN(Cc1ccncc1)C(=O)c1cc(COc2c(C)cccc2C)on1 | > 60 µM (not active) | 1.42 µM (active) | – |
| O=C(NC1CCN(Cc2ccccc2)CC1)C1CCN(S(=O)(=O)c2ccccc2)CC1 | > 60 µM (not active) | 0.424 µM (active) | – |
| Cc1[nH]c2ccccc2c1SCc1nnc(SCc2ccc(Cl)cc2)n1C | 12.3 µM (active) | 3.54 µM (active) | – |
| C1CCC(CNc2c3c(nc4nnnn24)CCCC3)CC1 | > 60 µM (not active) | 1.87 µM (active) | – |
| COC(=O)N1N=C(c2ccc(Br)cc2)CC1(O)C(F)(F)F (stereo not given) | – | – | EC50 [3]: 2.85 µM (active); EC50 (H4): 0.745 µM (active) |
| COc1cccc(/C=N/N2CCN(c3ccncc3S(=O)(=O)N3CCCCC3)CC2)c1 | > 60 µM (not active) | 1.71 µM (active) | – |
| Cc1ccc(C(=O)Nc2c(C#N)c(C)c(C)n2Cc2ccccc2)cc1 | – | – | AC50 (Cytochrome P450 2C19; read-out: AC50): 0.447 µM (inconclusive) |
| O=C(Nc1cccc(F)c1)N1CC=C(c2ccc(Cl)cc2)CC1 | > 60 µM (not active) | 1.48 µM (active) | – |
| O=C(O)C1C2C=CC3(CN(Cc4ccccn4)C(=O)C13)O2 (stereo not given) | – | – | AC50 (Cytochrome P450 2C19): inconclusive |
| C[C@H](CCC(=O)O)[C@H]1CC[C@]2(C)[C@@H]3C(=O)C[C@H]4C(C)(C)[C@@H](O)CC[C@]4(C)[C@H]3C(=O)C[C@@]12C | – | – | AC50 (Cytochrome P450 2C19): inconclusive |
| CCOc1ccccc1/C=N\Nc1cnn(Cc2ccccc2)c(=O)c1Cl | > 60 µM (inconclusive) | 3.38 µM (active) | – |
| Cc1ccccc1C1c2[nH]c3ccccc3c2C[C@H]2C(=O)N(C3CCN(Cc4ccccc4)CC3)CC(=O)N12 (stereo not given in full) | 13.3 µM (active) | 1.98 µM (active) | – |
| Cc1cc(C)c2c(N)c(C(=O)c3ccccc3)sc2n1 | > 60 µM (not active) | 0.225 µM (active) | – |
| C[C@@]12CC[C@H](O)C[C@@H]1CC[C@@H]1[C@@H]2CC[C@@]2(C)[C@@H](C3=CC(=O)OC3)[C@H](O)C[C@]12O | – | – | AC50 (Cytochrome P450 2C19): inconclusive |
| CC(=O)Nc1sc2c(c1C(N)=O)CCCC2 | – | – | AC50 (Cytochrome P450 2C19; read-out: AC50): 35.5 µM (inconclusive) |
| CC1=NN(c2ccccc2)C(=O)C1C(=O)c1ccc(Cl)cc1 (stereo not given) | – | – | AC50 (Cytochrome P450 2C19; read-out: AC50): 39.8 µM (inconclusive) |
| CCC(=O)Nc1ccc2nc(C3CC3)n(Cc3ccc(C(C)(C)C)cc3)c(=O)c2c1 | > 60 µM (not active) | 0.325 µM (active) | – |
| CC1CCC2CCCCC2N1C(=O)c1cc([N+](=O)[O-])cc([N+](=O)[O-])c1 (stereo not given) | > 60 µM (not active) | 0.212 µM (active) | – |
| O=C(NCCCN1CCOCC1)c1ccc(Sc2ccc(F)cc2)c([N+](=O)[O-])c1 | > 60 µM (inconclusive) | 1.01 µM (active) | – |
| CCn1cc(CN2CCCC(C(=O)c3cccc(OC)c3)C2)c(C)n1 (stereo not given) | > 60 µM (inconclusive) | 0.426 µM (active) | – |
| COc1cc(CN2CCCC(CO)(Cc3cccc(Cl)c3)C2)cc2c1OCO2 (stereo not given) | > 60 µM (not active) | 0.419 µM (active) | – |
| CCOc1ccccc1N(C)C(=O)c1cc2c(=O)n(CC)c3ccccc3c2s1 | > 60 µM (not active) | 1.43 µM (active) | – |
